Source: ChEMBL document CHEMBL2069290, “Synthesis and biological evaluation of novel oxindole derivatives for imaging neurofibrillary tangles in Alzheimer's disease” (Bioorg Med Chem Lett, 2012)

system: Kidney; test: Biodistribution in ddY mouse kidney at 3.3 to 6.7 kBq, iv after 60 mins by gamma counting; assay type: ADME, organism-based; details: in vivo, 1 h

Drug uptake [% ID/g] | Compound
2.51 | CN(C)c1ccc(C=C2C(=O)Nc3ccc([125I])cc32)cc1

system: Blood; test: Biodistribution in ddY mouse blood at 3.3 to 6.7 kBq, iv after 2 mins by gamma counting; assay type: ADME, organism-based; details: in vivo

Drug uptake [% ID/g] | Compound
1.77 | CN(C)c1ccc(C=C2C(=O)Nc3ccc([125I])cc32)cc1

system: Blood; test: Biodistribution in ddY mouse blood at 3.3 to 6.7 kBq, iv after 60 mins by gamma counting; assay type: ADME, organism-based; details: in vivo, 1 h

Drug uptake [% ID/g] | Compound
0.69 | CN(C)c1ccc(C=C2C(=O)Nc3ccc([125I])cc32)cc1

system: Intestine; test: Biodistribution in ddY mouse intestine at 3.3 to 6.7 kBq, iv after 60 mins by gamma counting; assay type: ADME, organism-based; details: in vivo, 1 h

Drug uptake [% ID/g] | Compound
12.11 | CN(C)c1ccc(C=C2C(=O)Nc3ccc([125I])cc32)cc1

system: Pancreas; test: Biodistribution in ddY mouse pancreas at 3.3 to 6.7 kBq, iv after 10 mins by gamma counting; assay type: ADME, organism-based; details: in vivo

Drug uptake [% ID/g] | Compound
3.19 | CN(C)c1ccc(C=C2C(=O)Nc3ccc([125I])cc32)cc1

system: Blood; test: Biodistribution in ddY mouse blood at 3.3 to 6.7 kBq, iv after 30 mins by gamma counting; assay type: ADME, organism-based; details: in vivo, 0.5 h

Drug uptake [% ID/g] | Compound
1.07 | CN(C)c1ccc(C=C2C(=O)Nc3ccc([125I])cc32)cc1

system: Pancreas; test: Biodistribution in ddY mouse pancreas at 3.3 to 6.7 kBq, iv after 60 mins by gamma counting; assay type: ADME, organism-based; details: in vivo, 1 h

Drug uptake [% ID/g] | Compound
0.6 | CN(C)c1ccc(C=C2C(=O)Nc3ccc([125I])cc32)cc1

system: Liver; test: Biodistribution in ddY mouse liver at 3.3 to 6.7 kBq, iv after 10 mins by gamma counting; assay type: ADME, organism-based; details: in vivo

Drug uptake [% ID/g] | Compound
10.56 | CN(C)c1ccc(C=C2C(=O)Nc3ccc([125I])cc32)cc1

system: Brain; test: Biodistribution in ddY mouse brain at 3.3 to 6.7 kBq, iv after 10 mins by gamma counting; assay type: ADME, organism-based; details: in vivo

Drug uptake [% ID/g] | Compound
2.1 | CN(C)c1ccc(C=C2C(=O)Nc3ccc([125I])cc32)cc1

system: Liver; test: Biodistribution in ddY mouse liver at 3.3 to 6.7 kBq, iv after 2 mins by gamma counting; assay type: ADME, organism-based; details: in vivo

Drug uptake [% ID/g] | Compound
12.37 | CN(C)c1ccc(C=C2C(=O)Nc3ccc([125I])cc32)cc1

system: Heart; test: Biodistribution in ddY mouse heart at 3.3 to 6.7 kBq, iv after 30 mins by gamma counting; assay type: ADME, organism-based; details: in vivo, 0.5 h

Drug uptake [% ID/g] | Compound
1.3 | CN(C)c1ccc(C=C2C(=O)Nc3ccc([125I])cc32)cc1

system: Brain; test: Biodistribution in ddY mouse brain at 3.3 to 6.7 kBq, iv after 60 mins by gamma counting; assay type: ADME, organism-based; details: in vivo, 1 h

Drug uptake [% ID/g] | Compound
0.44 | CN(C)c1ccc(C=C2C(=O)Nc3ccc([125I])cc32)cc1

system: Heart; test: Biodistribution in ddY mouse heart at 3.3 to 6.7 kBq, iv after 60 mins by gamma counting; assay type: ADME, organism-based; details: in vivo, 1 h

Drug uptake [% ID/g] | Compound
0.61 | CN(C)c1ccc(C=C2C(=O)Nc3ccc([125I])cc32)cc1

system: Stomach; test: Biodistribution in ddY mouse stomach assessed per organ at 3.3 to 6.7 kBq, iv after 2 mins by gamma counting; assay type: ADME, organism-based; details: in vivo

Drug uptake [%ID] | Compound
0.91 | CN(C)c1ccc(C=C2C(=O)Nc3ccc([125I])cc32)cc1

system: Liver; test: Biodistribution in ddY mouse liver at 3.3 to 6.7 kBq, iv after 60 mins by gamma counting; assay type: ADME, organism-based; details: in vivo, 1 h

Drug uptake [% ID/g] | Compound
6.89 | CN(C)c1ccc(C=C2C(=O)Nc3ccc([125I])cc32)cc1

system: Spleen; test: Biodistribution in ddY mouse spleen at 3.3 to 6.7 kBq, iv after 10 mins by gamma counting; assay type: ADME, organism-based; details: in vivo

Drug uptake [% ID/g] | Compound
3.37 | CN(C)c1ccc(C=C2C(=O)Nc3ccc([125I])cc32)cc1

system: Kidney; test: Biodistribution in ddY mouse kidney at 3.3 to 6.7 kBq, iv after 10 mins by gamma counting; assay type: ADME, organism-based; details: in vivo

Drug uptake [% ID/g] | Compound
5.04 | CN(C)c1ccc(C=C2C(=O)Nc3ccc([125I])cc32)cc1

system: Kidney; test: Biodistribution in ddY mouse kidney at 3.3 to 6.7 kBq, iv after 2 mins by gamma counting; assay type: ADME, organism-based; details: in vivo

Drug uptake [% ID/g] | Compound
9.63 | CN(C)c1ccc(C=C2C(=O)Nc3ccc([125I])cc32)cc1

system: Kidney; test: Biodistribution in ddY mouse kidney at 3.3 to 6.7 kBq, iv after 30 mins by gamma counting; assay type: ADME, organism-based; details: in vivo, 0.5 h

Drug uptake [% ID/g] | Compound
3.83 | CN(C)c1ccc(C=C2C(=O)Nc3ccc([125I])cc32)cc1

system: Heart; test: Biodistribution in ddY mouse heart at 3.3 to 6.7 kBq, iv after 10 mins by gamma counting; assay type: ADME, organism-based; details: in vivo

Drug uptake [% ID/g] | Compound
2.53 | CN(C)c1ccc(C=C2C(=O)Nc3ccc([125I])cc32)cc1

system: Spleen; test: Biodistribution in ddY mouse spleen at 3.3 to 6.7 kBq, iv after 60 mins by gamma counting; assay type: ADME, organism-based; details: in vivo, 1 h

Drug uptake [% ID/g] | Compound
0.66 | CN(C)c1ccc(C=C2C(=O)Nc3ccc([125I])cc32)cc1

system: Brain; test: Biodistribution in ddY mouse brain at 3.3 to 6.7 kBq, iv after 30 mins by gamma counting; assay type: ADME, organism-based; details: in vivo, 0.5 h

Drug uptake [% ID/g] | Compound
1.43 | CN(C)c1ccc(C=C2C(=O)Nc3ccc([125I])cc32)cc1

system: Intestine; test: Biodistribution in ddY mouse intestine at 3.3 to 6.7 kBq, iv after 10 mins by gamma counting; assay type: ADME, organism-based; details: in vivo

Drug uptake [% ID/g] | Compound
2.54 | CN(C)c1ccc(C=C2C(=O)Nc3ccc([125I])cc32)cc1

system: Stomach; test: Biodistribution in ddY mouse stomach assessed per organ at 3.3 to 6.7 kBq, iv after 30 mins by gamma counting; assay type: ADME, organism-based; details: in vivo, 0.5 h

Drug uptake [%ID] | Compound
3.52 | CN(C)c1ccc(C=C2C(=O)Nc3ccc([125I])cc32)cc1

system: Stomach; test: Biodistribution in ddY mouse stomach assessed per organ at 3.3 to 6.7 kBq, iv after 60 mins by gamma counting; assay type: ADME, organism-based; details: in vivo, 1 h

Drug uptake [%ID] | Compound
3.57 | CN(C)c1ccc(C=C2C(=O)Nc3ccc([125I])cc32)cc1

system: Pancreas; test: Biodistribution in ddY mouse pancreas at 3.3 to 6.7 kBq, iv after 2 mins by gamma counting; assay type: ADME, organism-based; details: in vivo

Drug uptake [% ID/g] | Compound
5.08 | CN(C)c1ccc(C=C2C(=O)Nc3ccc([125I])cc32)cc1

system: Brain; test: Ratio of drug uptake in ddY mouse brain after 2 mins to drug uptake in ddY mouse brain after 30 mins; assay type: ADME, tissue-based; details: in vivo

Ratio | Compound
1.7 | CN(C)c1ccc(C=C2C(=O)Nc3ccc([125I])cc32)cc1

system: Spleen; test: Biodistribution in ddY mouse spleen at 3.3 to 6.7 kBq, iv after 30 mins by gamma counting; assay type: ADME, organism-based; details: in vivo, 0.5 h

Drug uptake [% ID/g] | Compound
1.2 | CN(C)c1ccc(C=C2C(=O)Nc3ccc([125I])cc32)cc1

system: Brain; test: Biodistribution in ddY mouse brain at 3.3 to 6.7 kBq, iv after 2 mins by gamma counting; assay type: ADME, organism-based; details: in vivo

Drug uptake [% ID/g] | Compound
2.47 | CN(C)c1ccc(C=C2C(=O)Nc3ccc([125I])cc32)cc1

system: Intestine; test: Biodistribution in ddY mouse intestine at 3.3 to 6.7 kBq, iv after 30 mins by gamma counting; assay type: ADME, organism-based; details: in vivo, 0.5 h

Drug uptake [% ID/g] | Compound
8.33 | CN(C)c1ccc(C=C2C(=O)Nc3ccc([125I])cc32)cc1

system: Pancreas; test: Biodistribution in ddY mouse pancreas at 3.3 to 6.7 kBq, iv after 30 mins by gamma counting; assay type: ADME, organism-based; details: in vivo, 0.5 h

Drug uptake [% ID/g] | Compound
1.76 | CN(C)c1ccc(C=C2C(=O)Nc3ccc([125I])cc32)cc1

system: Liver; test: Biodistribution in ddY mouse liver at 3.3 to 6.7 kBq, iv after 30 mins by gamma counting; assay type: ADME, organism-based; details: in vivo, 0.5 h

Drug uptake [% ID/g] | Compound
9.43 | CN(C)c1ccc(C=C2C(=O)Nc3ccc([125I])cc32)cc1

system: Spleen; test: Biodistribution in ddY mouse spleen at 3.3 to 6.7 kBq, iv after 2 mins by gamma counting; assay type: ADME, organism-based; details: in vivo

Drug uptake [% ID/g] | Compound
3.66 | CN(C)c1ccc(C=C2C(=O)Nc3ccc([125I])cc32)cc1

system: Blood; test: Biodistribution in ddY mouse blood at 3.3 to 6.7 kBq, iv after 10 mins by gamma counting; assay type: ADME, organism-based; details: in vivo

Drug uptake [% ID/g] | Compound
1.64 | CN(C)c1ccc(C=C2C(=O)Nc3ccc([125I])cc32)cc1

system: Intestine; test: Biodistribution in ddY mouse intestine at 3.3 to 6.7 kBq, iv after 2 mins by gamma counting; assay type: ADME, organism-based; details: in vivo

Drug uptake [% ID/g] | Compound
1.57 | CN(C)c1ccc(C=C2C(=O)Nc3ccc([125I])cc32)cc1

system: Heart; test: Biodistribution in ddY mouse heart at 3.3 to 6.7 kBq, iv after 2 mins by gamma counting; assay type: ADME, organism-based; details: in vivo

Drug uptake [% ID/g] | Compound
10.17 | CN(C)c1ccc(C=C2C(=O)Nc3ccc([125I])cc32)cc1

system: Stomach; test: Biodistribution in ddY mouse stomach assessed per organ at 3.3 to 6.7 kBq, iv after 10 mins by gamma counting; assay type: ADME, organism-based; details: in vivo

Drug uptake [%ID] | Compound
1.64 | CN(C)c1ccc(C=C2C(=O)Nc3ccc([125I])cc32)cc1
